The structures appear in SMILES notation. Where only a bound is given, the exact number is not on record here.

Our source for the IC50 values is patent publication US20110105509A1 (Wyeth, LLC, priority 2009, published 2011).

In the test the target is T1, CRTH2 (Homo sapiens, UniProt Q9Y5Y4).
T1 construct: expressed in transfected cells; host or cells: CHO cells
T1 sequence (Q9Y5Y4 1-395): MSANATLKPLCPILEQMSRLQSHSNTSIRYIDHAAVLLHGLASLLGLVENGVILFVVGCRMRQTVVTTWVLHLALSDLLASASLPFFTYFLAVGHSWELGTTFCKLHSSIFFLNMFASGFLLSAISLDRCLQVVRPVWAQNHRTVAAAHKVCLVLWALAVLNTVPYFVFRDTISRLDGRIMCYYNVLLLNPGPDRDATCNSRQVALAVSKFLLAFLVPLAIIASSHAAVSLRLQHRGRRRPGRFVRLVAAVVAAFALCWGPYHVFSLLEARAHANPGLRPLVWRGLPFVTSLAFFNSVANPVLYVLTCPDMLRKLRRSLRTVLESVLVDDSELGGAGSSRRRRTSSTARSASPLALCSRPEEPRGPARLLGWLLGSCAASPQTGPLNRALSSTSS
Briefly: FRET based competitive immunoassay (cAMP) in CRTH2 expressing CHO cells. The test is classed as cell-based. As to conditions: CRTH2 expressing CHO cells incubated with forskolin and PGD2; Eu3+ cryptate-labeled anti-cAMP and d2-labeled cAMP. Here is the method:
FRET Assay: To evaluate potency compounds were tested in a FRET based competitive immunoassay in which CRTH2 expressing CHO cells were incubated in the presence of forskolin and PGD2 along with Eu3+ cryptate-labeled anti-cAMP and d2-labeled cAMP.
The compound `Cc1c(-c2ccc(=O)n(CC(F)(F)F)n2)c2ccccc2n1CC(=O)O` [Example 185, 2-(2-methyl-3-(6-oxo-1-(2,2,2-trifluoroethyl)-1,6-dihydropyridazin-3-yl)-1H-indol-1-yl)acetic acid] yielded an IC50 above 1 µM.
As for `Cc1c(-c2cn(Cc3ccccc3)c(=O)c3c2CCCC3)c2cc(F)ccc2n1CC(=O)O` [Example 88, 2-(3-(2-benzyl-1-oxo-1,2,5,6,7,8-hexahydroisoquinolin-4-yl)-5-fluoro-2-methyl-1H-indol-1-yl)acetic acid], the IC50 is 0.197 µM.
In turn, `COC(F)(F)Cn1cc(-c2c(C)n(CC(=O)O)c3ccccc23)c2ccccc2c1=O` [Example 253, 2-(3-(2-(2,2-difluoro-2-methoxyethyl)-1-oxo-1,2-dihydroisoquinolin-4-yl)-2-methyl-1H-indol-1-yl)acetic acid] came in with a concentration for half-maximal inhibition (IC50) of 0.009 µM.
Next, `Cc1c(-c2nn(Cc3ccc(Cl)cc3)c(=O)c3ccccc23)c2cc(Cl)ccc2n1CC(=O)O` [Example 1, 2-(5-Chloro-3-(3-(4-chlorobenzyl)-4-oxo-3,4-dihydrophthalazin-1-yl)-2-methyl-1H-indol-1-yl)acetic acid]: 0.015 µM.
`Cc1c(Cc2ccc(=O)n(Cc3cccc(C(C)(C)O)c3)n2)c2cc(F)ccc2n1CC(=O)O` [Example 240, 2-(5-fluoro-3-((1-(3-(2-hydroxypropan-2-yl)benzyl)-6-oxo-1,6-dihydropyridazin-3-yl)methyl)-2-methyl-1H-indol-1-yl)acetic acid] returned a concentration for half-maximal inhibition (IC50) of 0.004 µM.
`Cc1c(-c2nn(CC3CC3)c(=O)c3ccccc23)c2cc(Cl)ccc2n1CC(=O)O` [Example 108, 2-(5-chloro-3-(3-(cyclopropylmethyl)-4-oxo-3,4-dihydrophthalazin-1-yl)-2-methyl-1H-indol-1-yl)acetic acid] yielded an IC50 of 0.022 µM.
Compound `Cc1c(-c2ccc(=O)n(CC(C)(C)C)n2)c2cc(F)ccc2n1CC(=O)O` [Example 165, 2-(5-fluoro-2-methyl-3-(1-neopentyl-6-oxo-1,6-dihydropyridazin-3-yl)-1H-indol-1-yl)acetic acid] had a concentration for half-maximal inhibition (IC50) above 1 µM.
Next, `Cc1c(Cc2ccc(=O)n(Cc3ccccc3F)c2)c2ccccc2n1CC(=O)O` [Example 31, 2-(3-((1-(2-Fluorobenzyl)-6-oxo-1,6-dihydropyridin-3-yl)methyl)-2-methyl-1H-indol-1-yl)acetic acid]: 0.041 µM; `Cc1c(-c2cn(CC(C)(C)C)c(=O)c3ccccc23)c2cc(F)ccc2n1CC(=O)O` [Example 257, 2-(5-fluoro-2-methyl-3-(2-neopentyl-1-oxo-1,2-dihydroisoquinolin-4-yl)-1H-indol-1-yl)acetic acid]: 0.003 µM.
Next, `Cc1c(-c2nn(CC(N)=O)c(=O)c3ccccc23)c2cc(F)ccc2n1CC(=O)O` [Example 258, {3-[3-(2-amino-2-oxoethyl)-4-oxo-3,4-dihydrophthalazin-1-yl]-5-fluoro-2-methyl-1H-indol-1-yl}acetic acid]: 0.011 µM.
`Cc1c(Cc2ccc(=O)n(Cc3cccc(F)c3F)c2)c2cc(F)ccc2n1CC(=O)O` [Example 28, 2-(3-((1-(2,3-Difluorobenzyl)-6-oxo-1,6-dihydropyridin-3-yl)methyl)-5-fluoro-2-methyl-1H-indol-1-yl)acetic acid] came in with an IC50 of 0.017 µM.
Next, `Cc1c(-c2nn(Cc3nc4cc(C(F)(F)F)ccc4s3)c(=O)c3ccccc23)c2cc(F)ccc2n1CC(=O)O` [Example 115, 2-(5-fluoro-2-methyl-3-(4-oxo-3-((5-(trifluoromethyl)benzo[d]thiazol-2-yl)-methyl)-3,4-dihydrophthalazin-1-yl)-1H-indol-1-yl)acetic acid]: 0.064 µM.
As for `Cc1c(-c2ccc(=O)n(Cc3cccc(F)c3F)c2)c2cc(F)ccc2n1[C@H](C)C(=O)O` [Example 306b, (R)-2-(3-(1-(2,3-difluorobenzyl)-6-oxo-1,6-dihydropyridin-3-yl)-5-fluoro-2-methyl-1H-indol-1-yl)propanoic acid], the figure is above 2 µM.
In the case of `Cc1c(Cc2ccc(=O)n(CC(F)(F)F)c2)c2cc(F)ccc2n1CC(=O)O` [Example 46], the IC50 is 0.055 µM. This lies in the double-digit nanomolar range.
Next, `Cc1c(-c2nn(Cc3ccc(C(F)(F)F)cc3)c(=O)c3ccccc23)c2cc(F)ccc2n1CC(=O)O` [Example 204, 2-(5-fluoro-2-methyl-3-(4-oxo-3-(4-(trifluoromethyl)benzyl)-3,4-dihydrophthalazin-1-yl)-1H-indol-1-yl)acetic acid]: 0.01 µM; `Cc1c(-c2nn(Cc3ccc(Cl)cc3Cl)c(=O)c3ccccc23)c2cc(F)ccc2n1CC(=O)O` [Example 7, 2-(3-(3-(2,4-dichlorobenzyl)-4-oxo-3,4-dihydrophthalazin-1-yl)-5-fluoro-2-methyl-1H-indol-1-yl)acetic acid]: 0.004 µM.
As for `Cc1c(Cc2ccc(=O)n(Cc3cc(F)c(F)cc3F)c2)c2cc(F)ccc2n1CC(=O)O` [Example 23, 2-(5-Fluoro-2-methyl-3-((6-oxo-1-(2,4,5-trifluorobenzyl)-1,6-dihydro-pyridin-3-yl)methyl)-1H-indol-1-yl)acetic acid], the figure is 0.017 µM; as for `Cc1c(-c2nn(Cc3nc4cc(C(F)(F)F)ccc4s3)c(=O)c3ccccc23)c2cc(Cl)ccc2n1CC(=O)O` [Example 100, 2-(5-chloro-2-methyl-3-(4-oxo-3-((5-(trifluoromethyl)benzo[d]thiazol-2-yl)-methyl)-3,4-dihydrophthalazin-1-yl)-1H-indol-1-yl)acetic acid], 0.081 µM.
On to `Cc1c(-c2cn(Cc3ccccc3)c(=O)c3ccccc23)c2cc(F)ccc2n1CC(=O)NS(C)(=O)=O` [Example 323, 2-(3-(2-benzyl-1-oxo-1,2-dihydroisoquinolin-4-yl)-5-fluoro-2-methyl-1H-indol-1-yl)-N-(methylsulfonyl)acetamide], for which the IC50 was found to be 0.518 µM.
On to `COc1ccc(C(=O)n2c(C)c(-c3ccc(=O)n(Cc4ccccc4)n3)c3cc(F)ccc32)cc1` [Example 262a, 2-benzyl-6-(5-fluoro-1-(4-methoxybenzoyl)-2-methyl-1H-indol-3-yl)-pyridazin-3(2H)-one], for which the IC50 was above 10 µM.
`Cc1c(-c2ccc(=O)n(Cc3ccc(F)cc3F)n2)c2cc(F)ccc2n1CC(=O)O` [Example 71, 2-(3-(1-(2,4-difluorobenzyl)-6-oxo-1,6-dihydropyridazin-3-yl)-5-fluoro-2-methyl-1H-indol-1-yl)acetic acid] registered a concentration for half-maximal inhibition (IC50) of 0.017 µM.
As for `Cc1c(-c2ccc(=O)n(Cc3ccccc3)n2)c2cc(F)ccc2n1CC(=O)O` [Example 324, 2-(3-(1-benzyl-6-oxo-1,6-dihydropyridazin-3-yl)-5-fluoro-2-methyl-1H-indol-1-yl)-acetic acid], the figure is 0.006 µM.
As for `Cc1c(-c2nn(C(C)C)c(=O)c3ccccc23)c2cc(F)ccc2n1CC(=O)O` [Example 330, {5-fluoro-2-methyl-3-[3-(1-methylethyl)-4-oxo-3,4-dihydrophthalazin-1-yl]-1H-indol-1-yl}acetic acid], the figure is 0.015 µM; as for `Cc1ccc(Cn2nc(-c3c(C)n(CC(=O)O)c4ccccc34)c3ccccc3c2=O)cc1` [Example 173, 2-(2-methyl-3-(3-(4-methylbenzyl)-4-oxo-3,4-dihydrophthalazin-1-yl)-1H-indol-1-yl)acetic acid], 0.076 µM.
Next, `Cc1c(-c2ccc(=O)n(Cc3nc4ccccc4s3)n2)c2cc(F)ccc2n1CC(=O)O` [Example 153, 2-(3-(1-(benzo[d]thiazol-2-ylmethyl)-6-oxo-1,6-dihydropyridazin-3-yl)-5-fluoro-2-methyl-1H-indol-1-yl)acetic acid]: 0.025 µM; `Cc1c(Cc2ccc(=O)n(Cc3ccc(F)cc3F)n2)c2cc(F)cc(F)c2n1CC(=O)O` [Example 242, 2-(3-((1-(2,4-difluorobenzyl)-6-oxo-1,6-dihydropyridazin-3-yl)methyl)-5,7-difluoro-2-methyl-1H-indol-1-yl)acetic acid]: 0.028 µM.
For the compound `Cc1cc(Cn2nc(-c3c(C)n(CC(=O)O)c4ccc(Cl)cc34)c3ccccc3c2=O)c2ccccc2n1` [Example 104, 2-(5-chloro-2-methyl-3-(3-((2-methylquinolin-4-yl)methyl)-4-oxo-3,4-dihydro-phthalazin-1-yl)-1H-indol-1-yl)acetic acid], the IC50 was found to be 0.01 µM. This IC50 is about 2.8-fold lower than that of the compound before.
As for `Cc1c(-c2nn(Cc3nnc[nH]3)c(=O)c3ccccc23)c2cc(Cl)ccc2n1CC(=O)O` [Example 259a, 2-(3-(3-((4H-1,2,4-triazol-3-yl)methyl)-4-oxo-3,4-dihydrophthalazin-1-yl)-5-chloro-2-methyl-1H-indol-1-yl)acetic acid], the figure is 0.061 µM; as for `COc1ccc2c(c1)c(-c1ccc(=O)n(CC(F)(F)F)c1)c(C)n2CC(=O)O` [Example 298, 2-(5-methoxy-2-methyl-3-(6-oxo-1-(2,2,2-trifluoroethyl)-1,6-dihydropyridin-3-yl)-1H-indol-1-yl)acetic acid], above 2 µM; as for `Cc1c(-c2ccc(=O)n(C3CCCC3)c2)c2ccccc2n1CC(=O)O` [Example 288, 2-(3-(1-cyclopentyl-6-oxo-1,6-dihydropyridin-3-yl)-2-methyl-1H-indol-1-yl)-acetic acid], 0.117 µM.
Next, `Cc1c(-c2ccc(=O)n(CC3CC3)n2)c2ccccc2n1CC(=O)O` [Example 184, 2-(3-(1-(cyclopropylmethyl)-6-oxo-1,6-dihydropyridazin-3-yl)-2-methyl-1H-indol-1-yl)acetic acid]: 0.062 µM.

A word on the IC50: it is the concentration at which inhibition is half-maximal.
